What was measured:
[1] = refractive index (Na D-line) (dimensionless); conditions: 101.33 kPa, Liquid, Standard Abbe refractometry
[2] = Liquid; for electrical conductivity: Alternating current cell with electrodes; for viscosity: Capillary tube (Ostwald / Ubbelohde) method; for speed of sound: Linear variable-path acoustic interferometer; for mass density: Vibrating tube method

CC(=O)[O-].CCCCn1cc[n+](C)c1 [1-butyl-3-methylimidazolium acetate]
[1]
Conditions | refractive index
283.15 K | 1.49925
288.15 K | 1.49781
293.15 K | 1.49634
298.15 K | 1.49488
303.15 K | 1.49342
308.15 K | 1.49197
313.15 K | 1.49053
318.15 K | 1.48909
323.15 K | 1.48765
328.15 K | 1.48619
333.15 K | 1.48477
338.15 K | 1.48332
343.15 K | 1.48189

[2], 101.33 kPa
Conditions | electrical conductivity [S/m] | mass density [kg/m3] | speed of sound [m/s] | viscosity [mPa·s]
283.15 K | 0.0131 | 1061.85 | 1700 | 1927
288.15 K | 0.0215 | 1058.77 | 1683 | 1165
293.15 K | 0.0331 | 1055.69 | 1666 | 736.6
298.15 K | 0.049 | 1052.63 | 1650 | 485.1
303.15 K | 0.0699 | 1049.61 | 1635 | 330.9
308.15 K | 0.0968 | 1046.6 | 1621 | 233
313.15 K | 0.131 | 1043.59 | 1608 | 168.7
318.15 K | 0.172 | 1040.59 | 1595 | 125.2
323.15 K | 0.221 | 1037.58 | 1582 | 95.05
328.15 K | – | 1034.58 | 1570 | 73.63
333.15 K | – | 1031.59 | 1558 | 58.09
338.15 K | – | 1028.61 | 1546 | 46.57
343.15 K | – | 1025.64 | 1534 | 37.91

CC(=O)[O-].CCn1cc[n+](C)c1 [1-ethyl-3-methylimidazolium acetate]
[1]
Conditions | refractive index
283.15 K | 1.50423
288.15 K | 1.50283
293.15 K | 1.50144
298.15 K | 1.50001
303.15 K | 1.49861
308.15 K | 1.49718
313.15 K | 1.49577
318.15 K | 1.49436
323.15 K | 1.49295
328.15 K | 1.49154
333.15 K | 1.49015
338.15 K | 1.48876
343.15 K | 1.48734

[2], 101.33 kPa
Conditions | electrical conductivity [S/m] | mass density [kg/m3] | speed of sound [m/s] | viscosity [mPa·s]
283.15 K | 0.114 | 1107.56 | 1778 | 388.6
288.15 K | 0.162 | 1104.47 | 1764 | 258.4
293.15 K | 0.222 | 1101.36 | 1750 | 179.1
298.15 K | 0.296 | 1098.26 | 1737 | 128.5
303.15 K | 0.382 | 1095.16 | 1725 | 95.23
308.15 K | 0.48 | 1092.07 | 1712 | 72.42
313.15 K | 0.594 | 1089 | 1700 | 56.38
318.15 K | 0.827 | 1085.94 | 1687 | 44.79
323.15 K | 0.986 | 1082.9 | 1675 | 36.23
328.15 K | – | 1079.87 | 1664 | 29.78
333.15 K | – | 1076.84 | 1652 | 24.82
338.15 K | – | 1073.83 | 1640 | 20.95
343.15 K | – | 1070.83 | 1628 | 17.88

O=c1cc[nH]c(=O)[nH]1 [2,4(1H,3H)-pyrimidinedione]
[2], 101 kPa
Conditions | electrical conductivity [S/m] | mass density [kg/m3] | viscosity [mPa·s]
298.15 K | 0.296 | 1097.6 | 128.5
303.15 K | 0.382 | 1094.5 | 95.23
308.15 K | 0.48 | 1091.4 | 72.42
313.15 K | 0.594 | 1088.4 | 56.38
318.15 K | 0.827 | 1085.3 | 44.79
323.15 K | 0.986 | 1082.3 | 36.23
328.15 K | – | 1079.3 | 29.78
333.15 K | – | 1076.2 | 24.82
338.15 K | – | 1073.3 | 20.95
343.15 K | – | 1070.3 | 17.88

Nc1[nH]cnc2ncnc1-2 [6-amino-1H-purine]
[2], 101 kPa
Conditions | electrical conductivity [S/m] | mass density [kg/m3] | viscosity [mPa·s]
298.15 K | 0.296 | 1097.6 | 128.5
303.15 K | 0.382 | 1094.5 | 95.23
308.15 K | 0.48 | 1091.4 | 72.42
313.15 K | 0.594 | 1088.4 | 56.38
318.15 K | 0.827 | 1085.3 | 44.79
323.15 K | 0.986 | 1082.3 | 36.23
328.15 K | – | 1079.3 | 29.78
333.15 K | – | 1076.2 | 24.82
338.15 K | – | 1073.3 | 20.95
343.15 K | – | 1070.3 | 17.88

Source: the NIST ThermoML archive (doi:10.1016/j.jct.2012.07.022)
